Seven compounds from US12186435B2, “Sol-gel/hydrogel therapeutic delivery system and methods thereof” (ALBERT EINSTEIN COLLEGE OF MEDICINE, priority 2017, dated 2025) can be followed below.

Molecules are shown by their SMILES. “Also recorded” adds a separate entry of the source.

Data set [1] is described as follows: Release of NACSNO and GSNO from particles into aqueous buffer. It counts as physicochemical. Conditions: for release from original rapid gelation platform: deliverable added before condensation, aqueous buffer.
The nature of data set [2]: Release of fluorescent labeled lipids from Br1 particles, with or without 3% octyl-TMOS doping. The data set is classed as physicochemical. The source says:
FIG. 13. Effects of doping del with 3% octyl-TMOS on release of lipids. Plots from top to bottom, respectively: Cholesterol-BDP, Chol/3% Octyl, Palmitate-NBD, and Palm/3% Octyl.
Fluorescent labeled cholesterol and palmytic acid were used to show both loading and release. Procyanidine is a potent antioxidant that is being evaluated for use in the treatment of osteoarthritis.
Effects of Doping Del with 3% Octyl-TMOS on Release of Lipids (FIG. 13)
3% octyl doped gel changed cholesterol release(from 80% released down to 55% released), but had no effect on palmitate release.

Data set [3] can be described thus: Evans Blue release from particles in water. The data set is classed as physicochemical. Conditions: for release from amine (APTS) doped particles: hydrogel doped with amine groups. As for the experimental part: FIGS. 18A-18B. Curcumin (A) and (B) Evans Blue APTS doped gels. The gels were doped with 0.3% APTS. Rate of condensation changed by mM NaOH concentration (75, 60, 30, 12) added prior to condensation step. Increasing gel times for decreasing amount of added NaOH: (2 mins, 30 mins, 15 hours, 1.5 days: 75, 60, 30, 12 mM NaOH). Curcumin release in ethanol; Evans blue release in water. Both plots from top to bottom, respectively, at left side of plots: 75 mM, 60 mM, 30 mM and 12 mM.
Amines are incorporated by mixing hydrolyzed APTS with hydrolyzed TMOS. The resulting sol-gel monolith is loaded with the water soluble dye Evans Blue which has four negatively charged groups.

Data set [4] is described as follows: Curcumin release from particles into ethanol or methanol. It counts as physicochemical. The source says:
FIG. 2. A comparison of release profiles form curcumin loaded nanoparticles. “Brinker” (Br) is the high-density sol-gel that took 7 days to gel and curcumin added after the gelation is complete. “9d dry” is the original formulation air dried for 9 days. Release is of suspended particles into ethanol or methanol. Plots from top to bottom, respectively: EtOH original, EtOH 9d dry, MeOH Brinker, and EtOH Brinker.
Release from Nanoparticles was Made Via: • the Br(Brinker) method where the curcumin is loaded into the empty Br sol-gel block (slow gelation protocol), • The original hydrogel platform where the curcumin is mixed in the initial pre-condensation mixture which gels much more rapidly than the Br sol-gels, • Curcumin loaded in the original fast gelling platform but the resulting curcumin containing sol-gel is air dried for nine days (to promote enhanced density-decreasing pore size.
The effect of added PEG400 on release rates of NACSNO (SNO derivative of N-acetylcysteine) and curcumin from nanoparticles generated using the new block gel protocol (Universal Drug Delivery Platform). • New protocol in which NACSNO and curcumin are infused into a gel block prepared from TMOS using the standard Brinker method for gelation. Once the gel is loaded with the deliverables, the gel is lyophilized and then milled to produce the loaded nanoparticles. • Four separate gels are prepared for each of the deliverables • One gel has no added PEG whereas the other three have varying amounts of added PEG400. The percentage of added PEG shown in the figures refers to the percentage of PEG added compared to what was added in our original protocol.

For data set [5] the following is noted: in methanol.
Setting [6] is: gel block doped with octyl group.

For the compound `CC(=O)N[C@@H](CSN=O)C(=O)O` [NACSNO, S-nitrosoN-acetylcysteine], in data set [1], the “release from original rapid gelation platform” value was “almost immediate release”. In addition, the “effect of octyl group doping on release” value in data set [1] (setting [6]) is recorded as “slows release”.

Turning to `CC(C)CCC[C@@H](C)[C@H]1CC[C@H]2[C@@H]3CC=C4C[C@@H](O)CC[C@]4(C)[C@H]3CC[C@]12C` [cholesterol], the figures for the “cholesterol release, released” value in data set [2] (3% octyl doped gel) and in data set [2] (gel without octyl doping (Br1)) were 55% and 80%, respectively.

`CCCCCCCCCCCCCCCC(=O)O` [palmitate]: in data set [2] (3% octyl doped gel vs undoped), the “effect of 3% octyl doping on release” value is given as “no effect”.

On to `Cc1cc(-c2ccc(/N=N/c3ccc4c(S(=O)(=O)O)cc(S(=O)(=O)O)c(N)c4c3O)c(C)c2)ccc1/N=N/c1ccc2c(S(=O)(=O)O)cc(S(=O)(=O)O)c(N)c2c1O` [Evans Blue], for which the “effect of increasing addition of base prior to condensation on release” value in data set [3] (Br sol-gels doped with APTS) is reported as “increase in release”. In addition, the “release from amine (APTS) doped particles” value in data set [3] is “slowed by several orders or magnitude; also recorded: substantially slows release”; in data set [3] (listed as Evans blue) it was “slows”. In addition, the “release from undoped particles” value in data set [3] (without amine doping, aqueous environment) is “immediate and complete; also recorded: near instantaneous”.

Turning to `COc1cc(/C=C/C(=O)CC(=O)/C=C/c2ccc(O)c(OC)c2)ccc1O` [curcumin, Curcumin], the “effect of increasing addition of base prior to condensation on release” value in data set [4] (Br sol-gels doped with APTS) is given as “increase in release”. Also, the “effect of octyl group doping on release” value in data set [4] (setting [6]) was “slows release”. In data set [4] (slow gel, >1 day to form), the “effect of APTS on release” value is “increased”. The “release compared to the original platform and its air dried version” value in data set [4] (slow gelling Br protocol, curcumin loaded after gelation) was “dramatic slow down in release”. The “effect of increasing pH in condensation step on release” value in data set [4] (sol-gel doped with 25% PEG400, release in ethanol) was “increases release”.

As for `COc1ccc2cc([C@H](C)C(=O)O)ccc2c1` [Naproxen], in data set [5], the “release from new protocol nanoparticles” value is reported as “slow release”.

Take `N[C@@H](CCC(=O)N[C@@H](CSN=O)C(=O)NCC(=O)O)C(=O)O` [GSNO, S-nitrosothiol-GSH]: in data set [1], the “release from original rapid gelation platform” value was “rapid release”. Further, in data set [1] (prepared in original rapid gelation platform), the “stability in original rapid gelation platform” value is “unstable”.
